Data: patent US12083141B2, “Treatment of hyperglycemia with solute carrier family 39 member 5 (SLC39A5) inhibitors” (Regeneron Pharmaceuticals, Inc., priority 2019, dated 2024)

Legend:
[1] = system: mice fed high fat diet; assay: Zinc supplementation of high fat diet in mice (DIO); format: in vivo; settings: for hepatic zinc levels: zinc-supplemented diet
Protocol: Four groups of 6-week old male mice (16 per group) were fed either normal chow or high fat diets supplemented with different zinc concentrations for either 4 or 6 weeks (FIG. 2A). The levels of zinc were analyzed after 4 weeks (FIGS. 2B and 2C) and after 6 weeks (FIGS. 2D and 2E).

[2] = system: human hepatoma HepG2 cells; assay: Zinc activation of LKB1/AMPK and AKT signaling in HepG2 cells; format: cell-based; settings: acute, dose dependent
[3] = system: human primary hepatocytes; assay: Zinc activation of LKB1/AMPK and AKT signaling in primary hepatocytes; format: cell-based; settings: acute, dose dependent
Protocol: Liver protein was extracted using RIPA buffer (Cell signaling technology, Cat #9806) with Halt Protease & Phosphatase Inhibitor Cocktail (ThermoFisher Scientific, Cat #78440). Five microgram protein of each sample were separated in NuPAGE 4-12% Bis-Tris protein gel (Invitrogen, Cat #WG1403BOX), and transferred to nitrocellulose membrane using Trans-Blot® Turbo™ Transfer System (BioRad). Blotting was performed using the following Cell Signaling Technology antibodies: Phospho-AMPKα (Thr172) (Cell signaling technology, Cat #2535), AMPKα (Cell signaling technology, Cat #5831), β-Actin (Sigma, Cat #5441), Phospho-AKT (Ser473) (Cell signaling technology, Cat #4060), AKT (Cell signaling technology, Cat #9272), Phospho-LKB1 (Ser428) (Cell signaling technology, Cat #3482), LKB1 (Cell signaling technology, Cat #3050), rabbit IgG conjugated to horseradish peroxidase (HRP) (Cell signaling technology, Cat #7074) and mouse IgG conjugated to HRP (Cell signaling technology, Cat #7076). Blots were developed using SuperSignal West Femto Substrate (ThermoFisher Scientific, Cat #34095). Signals were captured using ImageQuant LAS4000 (GE Healthcare).

[4] = system: tyrosine phosphatase; assay: Dependence of tyrosine phosphatase activity on zinc concentration; format: biochemical; settings: increased concentrations of zinc
[5] = system: serine/threonine phosphatase; assay: Dependence of serine/threonine phosphatase activity on zinc concentration; format: biochemical; settings: increased concentrations of zinc
[6] = system: tyrosine phosphatase; assay: Ex vivo tyrosine phosphatase activity in SLC39A5 loss-of-function mice, diet zinc supplementation; settings: high fat diets supplemented with different zinc concentrations, ex vivo assay
[7] = system: serine/threonine phosphatase; assay: Ex vivo serine/threonine phosphatase activity in SLC39A5 loss-of-function mice, diet zinc supplementation; settings: high fat diets supplemented with different zinc concentrations, ex vivo assay

## [Zn] [zinc]
[1]; high fat diet supplemented with zinc
  fat accumulation in liver (microscopic analysis): reverses fat accumulation in liver
[1]; high fat diet with increasing diet zinc concentration, 4 or 6 weeks
  intravenous glucose tolerance test, blood glucose: mitigated blood glucose increase mediated by high fat diet
[1]; high fat diet with increasing diet zinc concentration, effect not statistically significant
  intravenous glucose tolerance test, area under the curve: reduced area under the curve
[1]; male mice, diets supplemented with different zinc concentrations, 4 and 6 weeks
  serum zinc levels: no significant change
[1]; male mice, after 4 weeks
  hepatic zinc levels: no significant change
[1]; male mice, after 6 weeks, correlated with level of zinc in diet
  hepatic zinc levels: statistically significant increase
[2]
  LKB1/AMPK and AKT signaling pathways: acutely activates LKB1/AMPK and AKT signaling pathways in dose dependent manner
[3]
  LKB1/AMPK and AKT signaling pathways: acutely activates LKB1/AMPK and AKT signaling pathways in dose dependent manner
[4]
  tyrosine phosphatase activity: suppressed the activity
[5]
  serine/threonine phosphatase activity: suppressed the activity
[6]
  rescue of tyrosine phosphatase inhibition caused by loss of SLC39A5: did not rescue the inhibition
[7]
  rescue of serine/threonine phosphatase inhibition caused by loss of SLC39A5: did not rescue the inhibition
